A short description of series [1]: in vitro. Particulars: mouse, swiss 3t3 fibroblasts. How it is done:
A third assay utilized in the present invention involves an in vitro cytotoxicity assay. This assay is used to further characterize the compounds in order to assess toxic activities of compounds on contact inhibited, non-dividing 3T3 fibroblasts. Other toxicity assays may be used.
Contact inhibited Swiss 3T3 fibroblasts are purchased from ATCC. The cells are maintained in 1640 RPMI supplemented with 10% fetal bovine serum (Gibco).
On day of assay, cells are detached from flasks by trypsinization, washed in medium and counted. 100 microliters of 2.5 x 10^4 cells per well are plated into Falcon brand 96 well tissue culture plates and cells incubated at 37°C in presence of 5% CO2 for 2 days or until confluent.
[…] All compound dilutions are assayed in triplicate. […] Cells are returned to the incubator for 2 days.
After 2 day incubation, the 3T3 cells are assayed for viability using an MTS Assay Kit (Promega). Media is added to blank wells for background calculations. After 2 hours incubation in kit reagent, the optical density at 490 nm for each compound and control is determined by plate reader.
Results are expressed as percent cytotoxicity, i.e., (mean OD of compound wells - background OD)/ (mean OD of controls - background).
Note that starting concentration of CsA was 1 µM. […]

The subject of series [2] is IFN-γ. Briefly: Human primary Th2 cells, anti-CD3/anti-CD28 activated, IFN-γ ELISA. In kind it is cell-based. To be noted: human primary Th2 cells, anti-CD3 and anti-CD28 (Table 5). On the procedure:
(§1) Briefly, CD4^+CD45RA^+ T cells, isolated from donor peripheral blood mononuclear cells of healthy donors, are educated in the presence of anti-CD3/CD28 antibodies and various growth factors to obtain either a Thl-like or Th2-like phenotypes as determined by the known cytokine profiles of these two cell types.
(§2) Peripheral blood mononuclear cells (PBMC) are prepared from human blood by Ficoll-Hypacque (Pharmacia). The cells are washed two times in Hanks balanced salt solution (HBSS) and counted.
(§3) Naive T cells (CD4^+/CD45RA ) are prepared by negative selection method using following antibodies and Dynabeads: anti-CD8, anti-HLA-DR, (where HLA means human leucocyte antigen) anti-CD14, anti-CD16, anti-CD19, anti-CD45RO antibodies (all from R&D Systems, 1-2 µg/ml) are added to the cells, and the cells are kept on ice for 30 min. The cells are washed two times in HBSS, and goat anti- mouse Ig-beads, (bead:target ratio, 5:1) are added. The cells and beads are slowly rotated at 4°C for 20 min. (following the protocol supplied from Dynal). The supernatant is removed and fresh goat anti-mouse Ig-beads are added to the supernatant, which is slowly rotated at 4°C for 20 min. The cells are counted and phenotypically characterized by flow cytometric analysis.
(§4) CD4^+/CD45RA^+ cells at a density of 10^6/ml in RPMI, is prepared and added to RPMI medium containing 10% Hyclone serum/ glutamine and 1-2 µg/ml anti-CD28 Ab. The cells are split in two aliquots. For Th1 cells: anti-IL-4 Ab (1-2 µg/ml), IFN-γ (1 µg/ml, or 5000 units/ml) are added to the wells. For Th2 cells: IL-4 (100-200 ng/ml), anti-IFN-γ neutralizing Ab (1-2 µg/ml), anti-IL-12 neutralizing Ab (1-2 µg/ml) are added into the wells. […] The cells are transferred to fresh wells and grown in 200 units/ml IL-2 for 2 weeks by feeding them every other day with IL-2 containing medium and splitting the cultures 1:2 or 1:3 as needed. The degree of polarization is determined by intracellular staining of cells with anti-IFN-γ and anti-IL-4 antibodies from Pharmingen, and using flow cytometry from Becton Dickinson (BD), according to manufacturers description. The cells are stimulated with PHA and alloantigens at day 14 and 28 as described below. Eight days after the second allostimulation the cells can be used for compound screening or frozen for future use. For compound testing, large quantities of Th1 and Th2 cells derived from a given donor (NYTh1 and NYTh2) were expanded and frozen as aliquots in liquid nitrogen. The cells are thawed and cultured as and when needed. The thawed cells are stimulated with alloantigen/PHA combination. The cells are used for compound screening after 8-10 days in culture.
(§5) Re-stimulation by allogeneic cells: Human PBMCs, to be used as alloantigens, are isolated from freshly drawn blood by Ficoll separation. […] Cells are counted and diluted to a final concentration of 2 x 10^6/ml in medium containing 10 µg/ml PHA and 200 units/ml IL-2.
(§6) Ninetysix well Falcon tissue culture plates (Fisher Scientific) are coated with 100 microliters per well of 10 µg/ml anti-CD3 (PharMingen) antibody in phosphate buffered saline (PBS) and stored at 4°C one day before the experiment.
(§7) On the day of assay, anti-CD3 antibody coated plates are washed with PBS once to remove all soluble anti-CD3 antibody. […] All compounds and controls are assayed in triplicates.

Series [3] has as its system Human Th2 cells. Description: Human primary Th2 cells, proliferation (viability, MTS assay). In kind it is cell-based. To be noted: human primary Th2 cells, anti-CD3 and anti-CD28 (Table 5); read-out: Prolif. IC50. How it is done: as §1, §2, §3, §4, §5, §6, §7
The subject of series [4] is IL-13. Description: Human primary Th2 cells, anti-CD3/anti-CD28 activated, IL-13 ELISA. It counts as cell-based. To be noted: human primary Th2 cells, anti-CD3 and anti-CD28 (Table 5). How it is done:
as §1, §2, §3, §4, §5, §6, §7

For series [5], the system named is IL-5. Description: Human primary Th2 cells, anti-CD3/anti-CD28 activated, IL-5 ELISA. Particulars: human primary Th2 cells, anti-CD3 and anti-CD28 (Table 5). It counts as cell-based. On the procedure: as §1, §2, §3, §4, §5, §6, §7
For series [6], the system named is IL-4. Description: Human primary Th2 cells, anti-CD3/anti-CD28 activated, IL-4 ELISA. To be noted: human primary Th2 cells, anti-CD3 and anti-CD28 (Table 5). It counts as cell-based. On the procedure: as §1, §2, §3, §4, §5, §6, §7

In the case of `C[C@@H]1C[C@H]2[C@@H]3CCC4=CC(=O)C=C[C@]4(C)[C@@]3(F)[C@@H](O)C[C@]2(C)[C@@]1(O)C(=O)CO` [Dexamethasone], in series [1], the viability at 48 h, 0.001 µM was determined as 100%; the viability at 48 h, 0.003 µM was found to be 77.9%; the viability at 48 h, 0.01 µM was determined as 71.6%; the viability at 48 h, 0.03 µM is 67.8%. Further, in series [1], the viability at 48 h, 0.1 µM was 64.2%; the viability at 48 h, 3 µM came out at 60.7%; the viability at 48 h, 10 µM came to 60.5%.
For `CCOC(=O)c1[nH]c2ccccc2c1Nc1ccncc1` [Example 11, 3-(4-pyridinylamino)-1H-indole-2-carboxylic acid, ethyl ester], the IC50 in series [2], in series [3], in series [4], in series [5] and in series [6] was more than 10 µM in each case.
With `CN(C)CCOC(=O)c1[nH]c2cc(Cl)ccc2c1NC(=O)c1ccccc1` [Example 79, 3-((Benzoyl)amino)-6-chloro-1H-indole-2-carboxylic acid 2-dimethylamino-ethyl ester], the IC50 was more than 10 µM in series [2]; more than 10 µM in series [3]; more than 10 µM in series [4]; more than 10 µM in series [5]; 5 µM in series [6].
`CCOC(=O)c1[nH]c2cc(Cl)cc(Cl)c2c1N(Cc1ccccc1)C(=O)c1ccccc1` [Example 89, 3-((Benzoyl)benzylamino)-4,6-dichloro-1H-indole-2-carboxylic acid ethyl ester]: the IC50 in series [2] was more than 10 µM; in series [3] it was 4 µM; in series [4], more than 10 µM; in series [5], 8 µM; in series [6] it was 2.5 µM.
Turning to `CCOC(=O)c1[nH]c2cc(Cl)cc(Cl)c2c1NS(=O)(=O)c1ccccc1` [Example 90, 3-((Phenylsulfonyl)amino)-4,6-dichloro-1H-indole-2-carboxylic acid ethyl ester], the IC50 in series [2] is more than 10 µM; in series [3], more than 10 µM; in series [4], more than 10 µM; in series [5], more than 10 µM; in series [6] it was 1 µM.
As to `CN(Cc1cnc2nc(N)nc(N)c2n1)c1ccc(C(=O)N[C@@H](CCC(=O)O)C(=O)O)cc1` [Methotrexate], in series [1], the viability at 48 h, 0.001 µM was found to be 113%; the viability at 48 h, 0.003 µM was 105%; the viability at 48 h, 0.01 µM came out at 103%; the viability at 48 h, 0.03 µM came out at 100%. Besides, in series [1], the viability at 48 h, 0.1 µM worked out at 98.9%; the viability at 48 h, 3 µM stood at 93.8%; the viability at 48 h, 10 µM amounted to 92.4%.
In the case of `CCOC(=O)c1c(Nc2ccncc2)c2ccccc2n1C` [Reference Example 24A, 1-Methyl-3-(4-pyridinylamino)-1H-indole-2-carboxylic ethyl ester], the IC50 in series [2] was more than 10 µM; in series [3], more than 10 µM; in series [4] it was more than 10 µM; in series [5], more than 10 µM; in series [6], 2 µM.
As to `CN(C(=O)CCc1ccccc1)c1c(C(=O)O)[nH]c2cc(Cl)ccc12` [Reference Example 76, 3-((3-Phenylpropanoyl)methylamino)-1H-6-chloro-indole-2-carboxylic acid], the IC50 in series [2] is more than 10 µM; in series [3], more than 10 µM; in series [4], more than 10 µM; in series [5], more than 10 µM; in series [6], 4 µM.
With `CN(C(=O)c1ccccc1)c1c(C(=O)O)[nH]c2cc(Cl)cc(Cl)c12` [Reference Example 77, 3-((Benzoyl)methylamino)-4,6-dichloro-1H-indole-2-carboxylic acid], the IC50 in series [2] is more than 10 µM; in series [3], more than 10 µM; in series [4] it was more than 10 µM; in series [5], more than 10 µM; in series [6] it was 3.6 µM.
On to `O=C(Nc1c(C(=O)O)[nH]c2cc(Cl)ccc12)c1ccccc1` [Reference Example 78, 3-((Benzoyl)amino)-6-chloro-1H-indole-2-carboxylic acid], for which the IC50 in series [2] is more than 10 µM; in series [3], more than 10 µM; in series [4], more than 10 µM; in series [5], more than 10 µM; in series [6], 0.3 µM.
`CN(C(=O)c1ccc(Cl)cc1)c1c(C(=O)O)[nH]c2cc(Cl)cc(Cl)c12` [Reference Example 80, 3-((4-chlorobenzoyl)methylamino)-4,6-dichloro-1H-indole-2-carboxylic acid]: the IC50 in series [2] was more than 10 µM; in series [3], more than 10 µM; in series [4] it was more than 10 µM; in series [5], more than 10 µM; in series [6] it was 6 µM.
Regarding `O=C(O)c1[nH]c2cc(Cl)cc(Cl)c2c1N(Cc1ccccc1)C(=O)c1ccccc1` [Reference Example 81, 3-((Benzoyl)benzylamino)-4,6-dichloro-1H-indole-2-carboxylic acid], the IC50 was 9.5 µM in series [2]; more than 10 µM in series [3]; more than 10 µM in series [4]; 7 µM in series [5]; 6 µM in series [6].
As for `CN(C(=O)c1ccccc1)c1c(C(=O)O)[nH]c2cc(Cl)c(Cl)cc12` [Reference Example 84, 3-((Benzoyl)methylamino)-5,6-dichloro-1H-indole-2-carboxylic acid], the IC50 in series [2] is more than 10 µM; in series [3], more than 10 µM; in series [4], more than 10 µM; in series [5], more than 10 µM; in series [6], 1 µM.
On to `CCN(C(=O)c1ccccc1)c1c(C(=O)O)[nH]c2cc(Cl)cc(Cl)c12` [Reference Example 85, 3-((Benzoyl)ethlamino)-4,6-dichloro-1H-indole-2-carboxylic acid], for which the IC50 is more than 10 µM in series [2]; more than 10 µM in series [3]; more than 10 µM in series [4]; more than 10 µM in series [5]; 0.9 µM in series [6].
For the compound `CN(C(=O)c1ccccc1)c1c(C(=O)O)[nH]c2cc(F)ccc12` [Reference Example 86, 3-((Benzoyl)methylamino)-6-fluoro-1H-indole-2-carboxylic acid], the IC50 in series [2] is more than 10 µM; in series [3] it was more than 10 µM; in series [4] it was more than 10 µM; in series [5], more than 10 µM; in series [6] it was 1 µM.
Consider `O=C(Nc1c(C(=O)O)[nH]c2cc(Cl)cc(Cl)c12)c1ccccc1Cc1ccccc1` [Reference Example 87, 3-((2-Benzylbenzoyl)amino)-4,6-dichloro-1H-indole-2-carboxylic acid], for which the IC50 is more than 10 µM in series [2]; more than 10 µM in series [3]; more than 10 µM in series [4]; 2 µM in series [5]; 0.6 µM in series [6].
With `CN(C(=O)c1cccc(F)c1)c1c(C(=O)O)[nH]c2cc(Cl)cc(Cl)c12` [Reference Example 88, 3-((3-Fluorobenzoyl)methylamino)-4,6-dichloro-1H-indole-2-carboxylic acid], the IC50 is more than 10 µM in series [2]; more than 10 µM in series [3]; more than 10 µM in series [4]; more than 10 µM in series [5]; 2.5 µM in series [6].

These data come from patent EP1501797B1, “3-(SUBSTITUTED AMINO)-1H-INDOLE-2-CARBOXYLIC ACID ESTER AND 3-(SUBSTITUTED AMINO)-BENZO[B]THIOPHENE-2-CARBOXYLIC ACID ESTER DERIVATIVES AS INTERLEUKIN-4 GENE EXPRESSION INHIBITORS” (Aventis Pharmaceuticals Inc., priority 2002, dated 2003).
